Data: patent US9029359B2, “Heteroaryl Btk inhibitors” (Biogen Idec MA, Inc., priority 2009, dated 2015)

Target: T1, BTK (Homo sapiens, UniProt Q06187)
T1 construct: purchased Upstate 14-552
Experiment: In vitro BTK kinase assay: BTK-POLYGAT-LS ASSAY
Format: biochemical
Conditions: ATP 10 uM
How it was run: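 BTK phosphorylation of polyGAT (100 nM final) with ATP at 10 μM final, 10 mM Tris-HCl pH 7.5 kinase buffer, quenched by EDTA after 30 min. Potency given as IC50.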

T1 sequence (Q06187 whole entry): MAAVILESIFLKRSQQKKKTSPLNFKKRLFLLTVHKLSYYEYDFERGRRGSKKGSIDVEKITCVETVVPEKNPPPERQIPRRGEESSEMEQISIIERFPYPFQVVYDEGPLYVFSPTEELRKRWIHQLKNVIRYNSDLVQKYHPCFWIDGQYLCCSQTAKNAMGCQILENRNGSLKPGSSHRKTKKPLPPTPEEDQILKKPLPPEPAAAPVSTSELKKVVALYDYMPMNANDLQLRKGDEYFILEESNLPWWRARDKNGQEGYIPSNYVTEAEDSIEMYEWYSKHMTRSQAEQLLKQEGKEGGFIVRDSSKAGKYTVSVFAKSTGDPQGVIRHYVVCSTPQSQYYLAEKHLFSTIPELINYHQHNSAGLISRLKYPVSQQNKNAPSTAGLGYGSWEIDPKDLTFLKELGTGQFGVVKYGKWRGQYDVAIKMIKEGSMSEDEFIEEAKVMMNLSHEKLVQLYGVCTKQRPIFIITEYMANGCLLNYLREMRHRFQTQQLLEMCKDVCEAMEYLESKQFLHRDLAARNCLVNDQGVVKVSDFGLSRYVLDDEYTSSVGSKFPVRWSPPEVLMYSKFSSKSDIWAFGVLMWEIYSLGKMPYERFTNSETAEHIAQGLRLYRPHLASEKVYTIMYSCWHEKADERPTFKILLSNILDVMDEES

SMILES	IC50 [nM]
O=C(CNc1cccc2c1OCCO2)NC1CCCN(c2ncnc3[nH]ccc23)C1 (stereo not drawn) [Example 336]	> 10000
O=C(CNc1cccc(N2CCNC2=O)c1)NC1CCCN(c2ncnc3[nH]ccc23)C1 (stereo not drawn) [Example 337]	> 10000
O=C(CNc1cccc(N2CCCC2=O)c1)NC1CCCN(c2ncnc3[nH]ccc23)C1 (stereo not drawn) [Example 338]	1000 to 10000
CNC(=O)c1cccc(NCC(=O)NC2CCCN(c3ncnc4[nH]ccc34)C2)c1 (stereo not drawn) [Example 339]	> 10000
COc1cccc(NCC(=O)NC2CCCN(c3nccc4[nH]ccc34)C2)c1OC (stereo not drawn) [Example 340]	> 10000
CC(O)c1cccc(NCC(=O)NC2CCCN(c3ncnc4[nH]ccc34)C2)c1 (stereo not drawn) [Example 341]	> 10000
Cn1cccc(NCC(=O)NC2CCCN(c3ncnc4[nH]ccc34)C2)c1=O (stereo not drawn) [Example 342]	> 10000
CN1CCN(c2cccc(NCC(=O)NC3CCCN(c4ncnc5[nH]ccc45)C3)c2)CC1 (stereo not drawn) [Example 343]	> 10000
CNC(=O)c1cnc(NC2CCCN(c3ncnc4[nH]ccc34)C2)s1 (stereo not drawn) [Example 344]	> 10000
CN(C)Cc1cccc(NCC(=O)NC2CCCN(c3ncnc4[nH]ccc34)C2)c1 (stereo not drawn) [Example 345]	> 10000
O=C(CNc1cccc(CN2CCCCC2)c1)NC1CCCN(c2ncnc3[nH]ccc23)C1 (stereo not drawn) [Example 346]	> 10000
Cc1cc(NCC(=O)NC2CCCN(c3ncnc4[nH]ccc34)C2)n(C)n1 (stereo not drawn) [Example 347]	> 10000
COc1ccc(NCC(=O)NC2CCCN(c3ncnc4[nH]ccc34)C2)cc1 (stereo not drawn) [Example 348]	> 10000
O=C(CNc1cccc(-c2nnco2)c1)NC1CCCN(c2ncnc3[nH]ccc23)C1 (stereo not drawn) [Example 349]	> 10000
Cc1cc(NCC(=O)NC2CCCN(c3ncnc4[nH]ccc34)C2)on1 (stereo not drawn) [Example 350]	> 10000
Cn1nc(-c2ccccc2)cc1NCC(=O)NC1CCCN(c2ncnc3[nH]ccc23)C1 (stereo not drawn) [Example 351]	> 10000
O=C(CNc1ccccn1)NC1CCCN(c2ncnc3[nH]ccc23)C1 (stereo not drawn) [Example 352]	1000 to 10000
O=C(CNc1ccncc1)NC1CCCN(c2ncnc3[nH]ccc23)C1 (stereo not drawn) [Example 353]	> 10000
O=C(CNC1CCCCC1)NC1CCCN(c2ncnc3[nH]ccc23)C1 (stereo not drawn) [Example 354]	> 10000

SMILES	IC50 [nM]
O=C(CNC1CCc2ccccc21)NC1CCCN(c2ncnc3[nH]ccc23)C1 (stereo not drawn) [Example 355]	> 10000
O=C(CNC1CCCc2ccccc21)NC1CCCN(c2ncnc3[nH]ccc23)C1 (stereo not drawn) [Example 356]	> 10000
O=C(CNCC1CCCCC1)NC1CCCN(c2ncnc3[nH]ccc23)C1 (stereo not drawn) [Example 357]	> 10000
CC(=O)Nc1cccc(NCC(=O)NC2CCCN(c3ncnc4[nH]ccc34)C2)c1 (stereo not drawn) [Example 358]	> 10000
O=C(CNc1ccccc1)N[C@H]1CCN(c2ncnc3[nH]ccc23)C1 [Example 359]	> 10000
O=C(CNc1ccccc1)N[C@@H]1CCN(c2ncnc3[nH]ccc23)C1 [Example 360]	> 10000
O=C(NC1CCCN(c2ncnc3[nH]ccc23)C1)C1NCc2ccccc21 (stereo not drawn) [Example 361]	> 10000
O=C(NC1CCCN(c2ncnc3[nH]ccc23)C1)c1cc2ccccc2[nH]1 (stereo not drawn) [Example 362]	1000 to 10000
O=C(CNC1CCCN(c2ncnc3[nH]ccc23)C1)Nc1ccccc1 (stereo not drawn) [Example 363]	> 10000
O=C(NC1CCCCN(c2ncnc3[nH]ncc23)C1)[C@H](Nc1cc(Cl)cc(Cl)c1)C1CC1 (stereo partly drawn) [Example 364]	< 100
CC[C@H](C)[C@@H](Nc1cc(F)cc(Cl)c1)C(=O)N[C@H]1CN(c2ncnc3[nH]ncc23)CC[C@@H]1C [Example 365]	< 100
C[C@H]1CCN(c2ncnc3[nH]ncc23)C[C@@H]1NC(=O)CNc1ccccc1S(=O)(=O)N1CCCCC1 [Example 366]	< 100
CC(C)Oc1ccccc1NCC(=O)N[C@@H]1CCCN(c2ncnc3[nH]ncc23)C1 [Example 367]	100 to 999
CN(C(C)(C)C)S(=O)(=O)c1ccccc1NCC(=O)N[C@@H]1CCCN(c2ncnc3[nH]ncc23)C1 [Example 368]	100 to 999
CC[C@@H](Nc1cc(Cl)cc(Cl)c1)C(=O)N[C@H]1CN(c2ncnc3[nH]ncc23)CC[C@@H]1C [Example 369]	100 to 999
CC1CCCN(S(=O)(=O)c2ccccc2NCC(=O)N[C@@H]2CCCN(c3ncnc4[nH]ncc34)C2)C1 (stereo partly drawn) [Example 370]	< 100
CCC[C@@H](Nc1cccc2c1OC(F)(F)O2)C(=O)N[C@@H]1CCCN(c2ncnc3[nH]ncc23)C1 [Example 371]	100 to 999
CC1CN(S(=O)(=O)c2ccccc2NCC(=O)N[C@@H]2CCCN(c3ncnc4[nH]ncc34)C2)CC(C)O1 (stereo partly drawn) [Example 372]	100 to 999

Continued, values first:

IC50 [nM]	SMILES
1000 to 10000	O=C([C@H](Nc1cc(F)cc(Cl)c1)C1CC1)N1CCCCC12CCCN(c1ncnc3[nH]ncc13)C2 (stereo partly drawn) [Example 373]
100 to 999	O=C(CNc1ccccc1C(=O)N1CCOCC1)N[C@@H]1CCCN(c2ncnc3[nH]ccc23)C1 [Example 374]
100 to 999	CN(C)S(=O)(=O)c1ccccc1NCC(=O)N[C@@H]1CCCN(c2ncnc3[nH]ncc23)C1 [Example 375]
100 to 999	CCC[C@@H](Nc1ccccc1C(C)C)C(=O)N[C@@H]1CCCN(c2ncnc3[nH]ncc23)C1 [Example 376]
1000 to 10000	CN1CCN(S(=O)(=O)c2ccccc2NCC(=O)N[C@@H]2CCCN(c3ncnc4[nH]ccc34)C2)CC1 [Example 377]
100 to 999	CC1CN(S(=O)(=O)c2ccccc2NCC(=O)N[C@@H]2CCCN(c3ncnc4[nH]ccc34)C2)CC(C)O1 (stereo partly drawn) [Example 378]
1000 to 10000	O=C([C@H](Nc1cc(F)cc(Cl)c1)C1CC1)N1CCCCC12CCCN(c1ncnc3[nH]ccc13)C2 (stereo partly drawn) [Example 379]
100 to 999	O=C(CNc1ccccc1OCC1CC1)N[C@@H]1CCCN(c2ncnc3[nH]ncc23)C1 [Example 380]
1000 to 10000	O=C(CNc1ccccc1-n1cccn1)N[C@@H]1CCCN(c2ncnc3[nH]ccc23)C1 [Example 381]
< 100	Cc1cc(NCC(=O)N[C@@H]2CCCN(c3ncnc4[nH]ccc34)C2)cc(OC(F)(F)F)c1 [Example 382]
< 100	O=C(CNc1cc(Cl)cc(OC(F)(F)F)c1)N[C@@H]1CCCN(c2ncnc3[nH]ccc23)C1 [Example 383]
100 to 999	CC(C)(C)Oc1ccccc1NCC(=O)N[C@@H]1CCCN(c2ncnc3[nH]ccc23)C1 [Example 384]
< 100	O=C(CNc1cc(F)cc(Cl)c1)N[C@@H]1CCCN(c2ncnc3[nH]ncc23)C1 [Example 385]
100 to 999	Cc1ccc(F)c(NCC(=O)N[C@@H]2CCCN(c3ncnc4[nH]ccc34)C2)c1 [Example 386]
1000 to 10000	O=C(N[C@@H]1CCCN(c2ncnc3[nH]ccc23)C1)C(Nc1cc(F)cc(Cl)c1)C1COC1 (stereo partly drawn) [Example 387]
1000 to 10000	O=C(O)Cc1cccc(NCC(=O)N[C@@H]2CCCN(c3ncnc4[nH]ccc34)C2)c1 [Example 389]
1000 to 10000	O=C(CNc1cccc(-c2nnco2)c1)N[C@@H]1CCCN(c2ncnc3[nH]ccc23)C1 [Example 390]
1000 to 10000	O=C(N[C@@H]1CCCN(c2ncnc3[nH]ccc23)C1)[C@@H](CC1CC1)Nc1cccc(Cl)c1 [Example 391]
1000 to 10000	O=C(N[C@@H]1CCCN(c2ncnc3[nH]cc(F)c23)C1)[C@H](Nc1cc(Cl)cc(Cl)c1)C1CC1 [Example 392]
1000 to 10000	O=C(N[C@@H]1CCCN(c2ncnc3[nH]ccc23)C1)[C@@H](CC1CC1)Nc1cc(F)cc(Cl)c1 [Example 393]
